Among the data in PubChem BioAssay (NCI) are TGI values, retold here.

Test systems include A549 NSCLC; ACHN renal; DU-145 prostate; HCT-116 colon; KM12 colon; NCI-H226 lung; NCI-H460 lung; NCI/ADR-RES ovarian; OVCAR-3 ovarian; OVCAR-8 ovarian; PC-3 prostate; SF-268 CNS; SF-295 CNS; SF-539 CNS; SK-MEL-28 melanoma; U251 CNS; UO-31 renal; CAKI-1 renal; NCI-H522 lung.
Holding throughout (test): growth of human tumour cells (NCI), 48 h

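The compound was tested at five concentrations on cells cultured in 96-well plates, with a 48-hour exposure period. The concentration for full growth arrest is given as TGI.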

`O=C(O)c1cc(N(Cc2ccccc2O)Cc2cc(O)ccc2O)ccc1O`: the TGI with A549 NSCLC, in the test with ACHN renal, in the test on DU-145 prostate, with HCT-116 colon, in the test with KM12 colon and in the test with NCI-H226 lung was more than 100 µM in each case. In addition, the TGI in the test on NCI-H460 lung, in the test with NCI/ADR-RES ovarian, with OVCAR-3 ovarian, in the test with OVCAR-8 ovarian, with PC-3 prostate and in the test with SF-268 CNS was more than 100 µM in each case. Moreover, the TGI in the test with SF-295 CNS, in the test with SF-539 CNS, in the test on SK-MEL-28 melanoma, in the test with U251 CNS and in the test on UO-31 renal was more than 100 µM throughout.

Take `O=c1c2ncn(CCCl)c2n(-c2ccccc2)c(=S)n1-c1ccccc1`: the TGI in the test on A549 NSCLC, in the test on ACHN renal, with CAKI-1 renal, in the test on DU-145 prostate, in the test with HCT-116 colon and in the test on KM12 colon was more than 100 µM throughout. Also, the TGI with NCI-H226 lung, in the test with NCI-H460 lung, with NCI-H522 lung, with NCI/ADR-RES ovarian, in the test with OVCAR-3 ovarian and in the test on OVCAR-8 ovarian was more than 100 µM throughout. For the same molecule, the TGI in the test on PC-3 prostate, in the test with SF-268 CNS, in the test with SF-295 CNS, in the test with SF-539 CNS, in the test on SK-MEL-28 melanoma and with U251 CNS was more than 100 µM throughout. For the same molecule, in the test on UO-31 renal, the TGI is more than 100 µM.

In the case of `CN(CC#N)C(=O)Cc1ccc([N+](=O)[O-])cc1`, the TGI with A549 NSCLC, in the test on ACHN renal, in the test with CAKI-1 renal, in the test on DU-145 prostate, in the test on HCT-116 colon and with KM12 colon was more than 10 µM in each case. The TGI in the test on NCI-H226 lung, in the test with NCI-H460 lung, with NCI/ADR-RES ovarian, in the test with OVCAR-3 ovarian, in the test with OVCAR-8 ovarian and in the test with PC-3 prostate was more than 10 µM throughout. The TGI with SF-268 CNS, with SF-295 CNS, in the test with SF-539 CNS, in the test with SK-MEL-28 melanoma, in the test with U251 CNS and with UO-31 renal was more than 10 µM in each case.

Turning to `Cc1cc2c(=O)[nH]nc(N)c2c(N)n1`, the TGI with A549 NSCLC, in the test on ACHN renal, with CAKI-1 renal, in the test on DU-145 prostate, with HCT-116 colon and in the test with KM12 colon was more than 100 µM each time. The TGI in the test with NCI-H226 lung, with NCI-H460 lung, in the test with NCI-H522 lung, with NCI/ADR-RES ovarian, in the test on OVCAR-8 ovarian and in the test with PC-3 prostate was more than 100 µM each time. Moreover, the TGI in the test with SF-268 CNS, with SF-295 CNS, in the test with SK-MEL-28 melanoma, in the test with U251 CNS and in the test on UO-31 renal was more than 100 µM throughout.

Take `Cc1cc(C)c(NS(=O)c2cccc([N+](=O)[O-])c2)c(C)c1` (configuration not stated): the TGI in the test with A549 NSCLC, with ACHN renal, with DU-145 prostate, in the test with KM12 colon, in the test with NCI-H226 lung and in the test with NCI-H460 lung was more than 100 µM throughout. The TGI with NCI/ADR-RES ovarian, with OVCAR-3 ovarian, in the test with OVCAR-8 ovarian, in the test with PC-3 prostate, with SF-268 CNS and in the test with SF-295 CNS was more than 100 µM each time. For the same molecule, the TGI with SF-539 CNS, in the test on SK-MEL-28 melanoma, in the test with U251 CNS and in the test on UO-31 renal was more than 100 µM throughout.

As for `CNC(=O)OCCN1c2ccccc2Sc2ccccc21`, the TGI in the test with A549 NSCLC, with ACHN renal, with CAKI-1 renal, in the test with DU-145 prostate, in the test on HCT-116 colon and in the test on KM12 colon was more than 100 µM throughout. In addition, the TGI in the test with NCI-H226 lung, with NCI-H460 lung, in the test with NCI-H522 lung, with NCI/ADR-RES ovarian, in the test on OVCAR-3 ovarian and with OVCAR-8 ovarian was more than 100 µM each time. Further, the TGI in the test with PC-3 prostate, with SF-268 CNS, in the test on SF-295 CNS, in the test with SF-539 CNS, in the test with SK-MEL-28 melanoma and in the test with U251 CNS was more than 100 µM throughout. Moreover, the TGI in the test with UO-31 renal is more than 100 µM.

In the case of `O=C(Nc1ccc(F)cc1)c1cc2ccc(O)cc2oc1=Nc1ccccc1F`, the TGI in the test with ACHN renal, in the test with CAKI-1 renal, in the test with DU-145 prostate, with HCT-116 colon, in the test on KM12 colon and with NCI-H460 lung was more than 100 µM throughout. The TGI is 84 µM in the test on NCI-H522 lung; 51.8 µM in the test with NCI/ADR-RES ovarian; more than 100 µM in the test on OVCAR-3 ovarian; 36.7 µM in the test on OVCAR-8 ovarian; more than 100 µM in the test on PC-3 prostate; more than 100 µM in the test with SF-268 CNS. Further, the TGI in the test on SF-295 CNS was more than 100 µM; in the test on SF-539 CNS, more than 100 µM; with SK-MEL-28 melanoma, more than 100 µM; with U251 CNS it was 97.5 µM.
